US6759234B1, “Compositions and methods for administering to humans, peptides capable of down regulating an antigen specific immune response” (Immulogic Pharmaceutical Corporation, priority 1994, dated 2004)
Ends that are not written are not given here.

System: IgG and IgE antibodies to Fel d I, peptide X and peptide Y
Assay: Protocol P92-01 Phase I antibody studies and skin testing with the peptides (antigenicity)
Type: in vivo, human cat-allergic subjects
Conditions: Week 8
Method: This Phase I, open-label, dose-escalating safety study was conducted to determine the safety of the administration of the peptide X (SEQ ID NO 1) and peptide Y (SEQ ID NO 2). The antigenicity of the components was also evaluated, as was the activity of the peptides in altering skin test sensitivity.
Safety was assessed by evaluations of clinical laboratory parameters, physical examination, antibody studies and adverse experiences. Activity was assessed by analysis of skin testing. Prick and intradermal skin testing with both affinity purified native Fel d I and the peptides were performed one week prior to, and two and six weeks following the treatment period. Sixteen patients were treated with peptides X and Y during the study. […] Adverse events recorded with the trial were typical of those seen in open label allergy studies. Patients were all cat allergic individuals in this trial and tolerated dose orders of magnitude higher than can be achieved with conventional immunotherapy.

Sequence | skin test reaction to the peptide in a single patient
KALPVVLENARILKNCVDAKMTEEDKE [peptide Y] | delayed local reaction
KRDVDLFLTGTPDEYVEQVAQYKALPV [peptide X] | substantial skin test reaction
